Values of other authors in US6884429B2, “Medical devices incorporating deuterated rapamycin for controlled delivery thereof” (Isotechnika International Inc., priority 1997, dated 2005).

Details: plasma and low-, and neuteral -pH buffers at 37° C.

For `CO[C@H]1C[C@@H]2CC[C@@H](C)[C@@](O)(O2)C(=O)C(=O)N2CCCC[C@H]2C(=O)O[C@H]([C@H](C)C[C@@H]2CC[C@@H](O)[C@H](OC)C2)CC(=O)[C@H](C)/C=C(\C)[C@@H](O)[C@@H](OC)C(=O)[C@H](C)C[C@H](C)/C=C/C=C/C=C/1C` [Rapamycin], the “half-life of degradation in solution” value is listed as < 10 h.
